Patent US10669242B2 (priority 2016, dated 2020)

Key:
[1] = biological target: T1, C. difficile full-length toxin TcdB (Clostridioides difficile, UniProt P18177); assay: cell-based
T1 construct: C. difficile full-length toxins (TcdA or TcdB); purchased EMD Millipore 616377

[2] = biological target: T2, recombinant glucosyltransferase domain of C. difficile Toxin B/TcdB (Clostridioides difficile, UniProt P18177); assay: biochemical
T2 construct: 6-His (C); purchased R&D Systems 6246-GT

[3] = biological target: T3, C. difficile full-length toxin TcdA (Clostridioides difficile, UniProt P16154); assay: cell-based
T3 construct: C. difficile full-length toxins (TcdA or TcdB); purchased Enzo Life Sciences BML-G140-0050
T3 sequence (P16154 whole entry, looked up): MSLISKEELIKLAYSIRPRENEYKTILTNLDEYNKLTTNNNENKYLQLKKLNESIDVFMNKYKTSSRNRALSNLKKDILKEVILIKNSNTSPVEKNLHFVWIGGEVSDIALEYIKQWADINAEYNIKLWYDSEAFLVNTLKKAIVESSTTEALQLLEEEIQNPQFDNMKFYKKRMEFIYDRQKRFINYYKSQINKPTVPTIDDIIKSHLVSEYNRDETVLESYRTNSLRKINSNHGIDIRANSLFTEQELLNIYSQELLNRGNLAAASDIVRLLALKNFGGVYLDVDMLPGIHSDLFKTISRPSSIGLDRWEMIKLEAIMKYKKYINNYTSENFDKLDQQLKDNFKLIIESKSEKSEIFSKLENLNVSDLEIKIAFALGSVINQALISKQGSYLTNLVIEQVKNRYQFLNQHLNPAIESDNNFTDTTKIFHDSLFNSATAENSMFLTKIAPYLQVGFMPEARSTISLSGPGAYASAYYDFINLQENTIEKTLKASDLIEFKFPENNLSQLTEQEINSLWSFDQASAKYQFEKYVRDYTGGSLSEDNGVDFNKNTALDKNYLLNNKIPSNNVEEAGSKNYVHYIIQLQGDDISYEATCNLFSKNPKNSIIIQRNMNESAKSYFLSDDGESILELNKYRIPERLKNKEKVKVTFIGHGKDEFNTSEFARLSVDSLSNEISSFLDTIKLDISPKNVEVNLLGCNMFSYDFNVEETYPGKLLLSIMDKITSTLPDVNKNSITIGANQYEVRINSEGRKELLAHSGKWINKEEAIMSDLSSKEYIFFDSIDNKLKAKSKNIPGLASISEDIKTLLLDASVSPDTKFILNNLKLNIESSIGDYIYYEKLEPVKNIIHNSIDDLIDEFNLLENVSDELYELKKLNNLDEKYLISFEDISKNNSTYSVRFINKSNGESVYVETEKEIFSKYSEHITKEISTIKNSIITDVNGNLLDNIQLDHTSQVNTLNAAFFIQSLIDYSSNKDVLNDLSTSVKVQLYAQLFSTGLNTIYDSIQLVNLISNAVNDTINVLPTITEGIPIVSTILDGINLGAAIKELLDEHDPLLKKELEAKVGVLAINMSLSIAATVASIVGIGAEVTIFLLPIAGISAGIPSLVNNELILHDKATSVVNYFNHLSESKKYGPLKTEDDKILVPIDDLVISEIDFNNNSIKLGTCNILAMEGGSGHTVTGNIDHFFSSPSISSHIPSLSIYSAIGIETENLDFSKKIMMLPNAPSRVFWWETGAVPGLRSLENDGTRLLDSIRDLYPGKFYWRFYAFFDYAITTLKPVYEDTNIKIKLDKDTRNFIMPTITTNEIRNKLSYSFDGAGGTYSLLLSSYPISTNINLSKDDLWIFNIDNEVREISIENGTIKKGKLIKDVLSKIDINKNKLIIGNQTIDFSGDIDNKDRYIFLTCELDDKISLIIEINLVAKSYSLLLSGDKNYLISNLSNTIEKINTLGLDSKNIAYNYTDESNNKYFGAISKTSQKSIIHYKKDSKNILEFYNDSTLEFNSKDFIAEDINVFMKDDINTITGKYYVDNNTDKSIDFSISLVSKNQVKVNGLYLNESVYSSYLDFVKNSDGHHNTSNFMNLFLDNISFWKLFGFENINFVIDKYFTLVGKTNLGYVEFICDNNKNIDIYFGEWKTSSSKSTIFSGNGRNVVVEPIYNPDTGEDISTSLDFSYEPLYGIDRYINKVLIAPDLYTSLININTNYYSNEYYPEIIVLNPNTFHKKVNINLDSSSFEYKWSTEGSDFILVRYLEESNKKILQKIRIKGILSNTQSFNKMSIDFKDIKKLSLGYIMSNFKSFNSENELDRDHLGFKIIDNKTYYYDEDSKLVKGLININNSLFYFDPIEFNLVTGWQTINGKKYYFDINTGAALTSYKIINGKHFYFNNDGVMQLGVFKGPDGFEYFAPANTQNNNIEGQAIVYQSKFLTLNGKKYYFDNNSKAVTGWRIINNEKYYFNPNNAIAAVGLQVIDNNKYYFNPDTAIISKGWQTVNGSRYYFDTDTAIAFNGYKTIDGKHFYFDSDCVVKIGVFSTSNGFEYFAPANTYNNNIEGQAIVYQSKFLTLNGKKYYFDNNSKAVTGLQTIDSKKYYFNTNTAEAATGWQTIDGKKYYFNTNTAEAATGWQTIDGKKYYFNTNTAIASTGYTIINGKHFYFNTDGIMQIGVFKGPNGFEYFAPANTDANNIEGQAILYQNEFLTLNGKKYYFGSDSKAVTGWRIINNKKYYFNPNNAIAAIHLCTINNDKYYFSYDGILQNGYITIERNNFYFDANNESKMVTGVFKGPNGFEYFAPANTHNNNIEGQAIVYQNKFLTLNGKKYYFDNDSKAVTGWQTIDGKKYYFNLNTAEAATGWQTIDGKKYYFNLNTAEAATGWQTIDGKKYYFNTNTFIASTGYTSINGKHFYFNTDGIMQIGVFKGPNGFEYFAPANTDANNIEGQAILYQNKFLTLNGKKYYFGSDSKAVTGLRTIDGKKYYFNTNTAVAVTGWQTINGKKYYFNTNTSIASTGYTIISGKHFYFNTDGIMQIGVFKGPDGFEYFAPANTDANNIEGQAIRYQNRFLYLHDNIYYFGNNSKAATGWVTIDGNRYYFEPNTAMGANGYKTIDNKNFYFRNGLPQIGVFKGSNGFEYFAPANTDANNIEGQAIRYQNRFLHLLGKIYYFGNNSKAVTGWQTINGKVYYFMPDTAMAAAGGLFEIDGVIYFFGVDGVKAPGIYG

[4] = tested on: C. difficile strain VPI 10463; assay: Acute murine C. difficile infection model; assay type: in vivo, C57BL/6 mice; conditions: PO; 52 hours after infection
Source text: In a hospital environment, C. difficile infection occurs when the patient receives an antibiotic treatment that disrupts the normal gut microflora and is exposed to C. difficile spores. The patient often fails to mount a protective immune response against the acute C. difficile infection. (Rupnik, Wilcox et al. 2009). To study the acute C. difficile infection, we established a murine C. difficile infection model. Details of the infection model are provided in the “Experimental Protocol” (below).
In brief, female C57BL/6 mice were administered the following antibiotics: colistin (0.042 units/mL), gentamicin (0.035 mg/mL), kanamycin (0.4 mg/mL), metronidazole (0.215 mg/mL) and vancomycin (0.045 mg/mL) in drinking water for 3 days. The administered antibiotics disrupted the normal gut microflora in mice. On the 4th day, mice received oral administration of 0.5 mL volume containing ˜100 spores produced from a virulent clinical C. difficile isolate (strain VPI 10463). In this acute murine C. difficile infection model, we observed a similar time course of infection when compared to that of clinical patients.
Using the developed murine C. difficile infection model (Example 67), we evaluated our test compounds for their efficacy in reducing weight loss and gut inflammation caused by the acute C. difficile infection. We tested the efficacy of Example 6a and Example 5ae and used eight (8) animals in each group.
We further tested the efficacy of the Example 6a, Example 5ae, Example 4cl, and Example 5al compounds by PO administration. Vancomycin was used as a positive control. Three (3) experiments were performed utilizing a total of five (5) to sixteen (16) animals in each group.
C. difficile strain VPI 10463 was grown for four (4) days in 10 ml of BHI in a Bactron anaerobic workstation (Shel Lab). The culture was centrifuged at 2,700 g for 10 minutes. The bacterial pellet was washed with 10 mL of PBS and the centrifugation was repeated. The pellet was then re-suspended in 10 mL of PBS, incubated at 56° C. for 10 minutes, and then was frozen at −20° C. until used. Titers of spore stocks were determined by serial dilution and plating onto BHI and with 1% taurocholate and counting of colonies after incubation for 24 hours at 37° C. using the GasPak EZ Anaerobe Pouch System.
We utilized an established C. difficile murine infection model (Chen, Katchar et al. 2008). To render them susceptible to infection, female C57BL/6 mice (˜10 weeks old and weighing ˜20 g) were administered the following antibiotics (Sigma Aldrich) in drinking water for 3 days (Days −6 to −3): colistin (0.042 units/mL), gentamicin (0.035 mg/mL), kanamycin (0.4 mg/mL), metronidazole (0.215 mg/mL) and vancomycin (0.045 mg/mL). Based upon an expected water consumption of 100 mL/kg/day, the approximate doses of these antibiotics will be as follows: colistin (4.2 units/kg/day), gentamicin (3.5 mg/kg/day), kanamycin (40 mg/kg/day), metronidazole (21.5 mg/kg/day) and vancomycin (4.5 mg/kg/day). The animals were provided with regular drinking water for two days (Day −2 and Day −1), and the next day (Day 0) they were administered clindamycin phosphate (1 mg/mL solution in PBS) at 10 mL/kg by intraperitoneal injection, for a final dose of 10 mg/kg body weight. The following day (Day 1), they were orally gavaged with ˜100 spores in a 0.5 ml volume.
Compounds were administered beginning ˜8 hours after infection, and the animals were dosed twice per day for two days (Days 2-3) with a total of four doses. Compounds were prepared as 5 mg/mL suspensions in 20% PEG-400, 0.4% carboxymethyl cellulose and 0.2% Tween 80 and administered at a dose of 10 mL/kg, for a final dose of 50 mg/kg body weight.
Animals were observed and weighed two (2) to (3) times daily. Animals that were obviously moribund or had lost >20% of their initial body weight were euthanized. Sub-groups of animals were euthanized four (4) hours after the final compound dose (52 hours after infection). […]

[5] = tested on: C. difficile toxin (TcdA and TcdB, ~1:1); assay: Murine C. difficile toxin model (intrarectal toxin); assay type: in vivo, C57BL/6 mice; conditions: for IL-1β (% Inhibition) / MPO (% Inhibition): murine C. difficile toxin model, PO, 50 mg/kg body weight; for IL-1β in colon tissue / MPO in colon tissue / toxin effect on colon length: oral (PO), 50 mg/kg, intrarectal toxin 12.5 μg
Description: In the following studies, we established a murine C. difficile toxin model with modifications from a published murine model (Hirota, Iablokov et al. 2012). Details of the murine C. difficile toxin model are described in the “Experimental Protocols” (below). C. difficile toxins were isolated from a culture of the C. difficile strain VPI 10463. C. difficile toxins consisted of TcdA and TcdB (˜1:1 ratio of TcdA:TcdB). Respective TcdA and TcdB concentrations were determined by enzyme-linked immunosorbant assay (ELISA). In our mouse model, C. difficile toxins were administered intrarectally to evaluate their pathological effects.
We administered C. difficile toxin (12.5 μg/mouse) via intrarectal instillation into female C57BL/6 mice. Four (4) animals were used in each group. Four (4) hours after the toxin administration, the mice were euthanized. The colons were excised from the animals and washed with phosphate buffered saline (PBS). The colon lengths were measured. Excised colon tissues were stored at −70° C. for chemical analysis of interleukin-1β(IL-1β) and myeloperosidase (MPO) in tissues, which are the hallmarks of colon inflammation. Excised colon tissues were also stored at room temperature in 10% neutral buffered formalin for histopathological analysis.
Using the murine C. difficile toxin model (Example 61), we evaluated the efficacy of Example 6a in reducing the C. difficile toxin activity. In this study, the isolated toxin (12.5 μg) was diluted in 50 μl of PBS and mixed with a 50 μl suspension of Example 6a (10 mg/mL) in 1% carboxymethyl cellulose and 0.5% Tween 80 to achieve a fixed dose of […] of Example 6a (0.5 mg in mice weighing ˜20 g) and C. difficile toxin (12.5 μg). Three (3) animals were used in each group.
In this study, we evaluated the efficacy of Example 6a via different routes of administration (i.e., oral (PO) and intraperitoneal (IP) administrations) in the same murine C. difficile toxin model (Example 61). In both PO and IP dosages, Example 6a was prepared as 5 mg/mL solutions in 20% PEG-400, 0.4% carboxymethyl cellulose and 0.2% Tween 80. Example 6a was administered at a final dose of 50 mg/kg body weight. Three (3) mice were used in each group (i.e., vehicle (control), PO and IP).
Using the murine C. difficile toxin model (Example 63), we further tested the efficacy of four (4) additional compounds (i.e., Example 6a, Example 5ae, Example 4cl, and Example 5al) via PO administration. All of the compounds were dosed orally at 50 mg/kg body weight. In three separate studies a total of three (3) to fourteen (14) mice were used in each group.
We evaluated the efficacy of additional compounds in reducing C. difficile toxicity. Using the PO administration (Example 63), we further tested 30 compounds (Table 34). All of the compounds were dosed orally at 50 mg/kg body weight. Three (3) to fourteen (14) animals were used for each compound. % inhibition was determined by the following formula: […]
An overnight culture of C. difficile strain VPI 10463 (American Type Culture Collection) was grown at 37° C. in Brain-Heart Infusion (BHI) broth using the GasPak EZ Anaerobe Pouch System (Becton Dickinson). 2 mL of the culture was added to 28 mL of phosphate buffered saline (PBS) in a gamma-irradiated, 10,000 molecular weight cut-off, 30-70 ml Slide-A-Lyzer G2 dialysis cassette (Pierce). This cassette was submerged in 1 L of BHI broth in a 2 L beaker and incubated under anaerobic conditions for 5 days at 37° C. The culture was then transferred to a 50 mL conical tube and the cassette was washed with 10 mL of PBS. The combined culture and wash were centrifuged at 2,000 g for 20 minutes to pellet the bacteria and the supernatant was filtered through a 0.2 μm syringe filter. The filtrate was then applied to a 20 mL 150 K molecular weight cut-off concentration column (Pierce) and centrifuged at 2,000 g for 15 minutes. Concentrated supernatant was stored at 4° C. […]

[6] = tested on: C. difficile infection (CDI); conditions: patients; Louie et al. 2011; cited from earlier work
C. difficile strain 630 = assay type: in vivo, Golden Syrian hamsters; conditions: PO twice per day; Example 5ae 50 mg/kg 7 days; vancomycin 5 mg/kg 5 days
C. difficile = assay type: in vivo, C57/BL6 mice

T2 sequence (P18177 1-543): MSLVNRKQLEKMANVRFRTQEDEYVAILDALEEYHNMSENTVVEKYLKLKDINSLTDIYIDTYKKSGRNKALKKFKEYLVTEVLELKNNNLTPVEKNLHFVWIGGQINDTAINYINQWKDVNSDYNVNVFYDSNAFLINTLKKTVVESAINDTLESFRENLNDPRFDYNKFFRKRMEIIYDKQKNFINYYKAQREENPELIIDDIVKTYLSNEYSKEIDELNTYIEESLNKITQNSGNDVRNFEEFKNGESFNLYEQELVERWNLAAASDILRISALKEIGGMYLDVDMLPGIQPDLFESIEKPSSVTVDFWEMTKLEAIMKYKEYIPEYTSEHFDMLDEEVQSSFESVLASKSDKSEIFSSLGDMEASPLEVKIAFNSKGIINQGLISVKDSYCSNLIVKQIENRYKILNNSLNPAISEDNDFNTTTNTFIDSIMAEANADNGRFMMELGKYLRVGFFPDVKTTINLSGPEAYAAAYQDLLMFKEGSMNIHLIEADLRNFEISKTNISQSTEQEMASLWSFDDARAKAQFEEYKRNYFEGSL

SMILES | IC50 [1] | IC50 [2] | IC50 [3] | toxin effect on colon length [4] | IL-1β (% Inhibition) [5] | MPO (% Inhibition) [5] | IL-1β in colon tissue [5] | MPO in colon tissue [5] | toxin effect on colon length [5] | IL-1β in colon tissues [4] | MPO in colon tissues [4] | CDI recurrence [6] | body weight loss (C. difficile strain 630) | weight loss, days 8-9 after infection (C. difficile; relapse model, PO, vancomycin 20 mg/kg once per day for five days) | weight loss during treatment (Days 1-5) (C. difficile; vancomycin 20 mg/kg oral, once per day for five days)
COc1ccc(NC(=O)c2ccc(CN3C(=O)c4ccc(Cl)cc4NC(=O)[C@H]3Cc3ccccn3)cc2C)nc1 [Example 4cl, (R)-4-((8-Chloro-2,5-dioxo-3-(pyridin-2-ylmethyl)-2,3-dihydro-1H-benzo[e][1,4]diazepin-4(5H)-yl)methyl)-N-(5-methoxypyridin-2-yl)-2-methylbenzamide] | < 100 nM | < 100 nM | 100 to 999 nM | significantly reduced the toxin effect on colon length | 100% | 100% | reduced the levels of IL-1β | reduced | reduced the C. difficile toxin-mediated effects on colon length |  |  |  |  |  | 
Cc1cc(CN2C(=O)c3ccc(Cl)cc3NC(=O)[C@H]2Cc2ccccn2)ccc1C(=O)Nc1ccc(C(F)(F)F)cn1 [Example 5al, (R)-4-((8-Chloro-2,5-dioxo-3-(pyridin-2-ylmethyl)-2,3-dihydro-1H-benzo[e][1,4]diazepin-4(5H)-yl)methyl)-2-methyl-N-(5-(trifluoromethyl)pyridin-2-yl)benzamide] | < 100 nM | < 100 nM | 1000 to 10000 nM | significantly reduced the toxin effect on colon length | 81% | 91% | reduced the levels of IL-1β | reduced | reduced the C. difficile toxin-mediated effects on colon length | reduced the level of IL-1β | reduced |  |  |  | 
CCc1c(Cl)c(O)c(Cl)c(O)c1C(=O)O[C@H]1[C@H](O)[C@H](OC)[C@H](OC/C2=C\C=C\C[C@H](O)/C(C)=C/[C@H](CC)[C@@H](O[C@@H]3OC(C)(C)[C@@H](OC(=O)C(C)C)[C@H](O)[C@@H]3O)/C(C)=C/C(C)=C/C[C@@H]([C@@H](C)O)OC2=O)O[C@@H]1C [fidaxomicin] |  |  |  |  |  |  |  |  |  |  |  | 8% |  |  | 
CN[C@H](CC(C)C)C(=O)N[C@H]1C(=O)N[C@@H](CC(N)=O)C(=O)N[C@H]2C(=O)N[C@H]3C(=O)N[C@H](C(=O)N[C@H](C(=O)O)c4cc(O)cc(O)c4-c4cc3ccc4O)[C@H](O)c3ccc(c(Cl)c3)Oc3cc2cc(c3O[C@@H]2O[C@H](CO)[C@@H](O)[C@H](O)[C@H]2O[C@H]2C[C@](C)(N)[C@H](O)[C@H](C)O2)Oc2ccc(cc2Cl)[C@H]1O [vancomycin, reference compound] |  |  |  |  |  |  |  |  |  |  |  | 25% | prevented any significant weight loss | significant weight loss | prevented weight loss
